Key:
[1] = test system: IRE-1α^−/− and wild type (WT) fibroblasts; experiment: tunicamycin in IRE-1α+/+ and IRE-1α−/− fibroblasts; assay type: cell-based, mouse
Excerpt: JNK activity was examined at indicated times following treatment with tunicamycin in IRE1a+/+ and IRE-1a−/− fibroblasts using an […] kinase assay and recombinant c-jun as substrate. JNK activity and total JNK levels (a). Phosphorylation of IRS-1 at ser307 residue in IRE1a+/+ and IRE-1a−/− fibroblasts following treatment with tunicamycin following IRS-1 immunoprecipitation (IP) and immunoblotting (IB) with an IRS-1 phosphoserine 307-specific antibody (b). Insulin (ins)-stimulated IRS-1 tyrosine phosphorylation and total IRS-1 in levels following treatment of IRE1a+/+ and IRE-1a−/− fibroblasts with tunicamycin.
(§1) (A) ER stress was induced in Fao liver cells by a 3-hour treatment with 5 μg/ml tunicamycin (Tun). Cells were subsequently stimulated with insulin (Ins). IRS-1 tyrosine and serine (Ser307) phosphorylation, Akt phosphorylation (Ser473), insulin receptor (IR) tyrosine phosphorylation, and their total protein levels were examined using either immunoprecipitation (IP) followed by immunoblotting (IB) or direct immunoblotting. (B) Quantitation of IRS-1 (tyrosine and Ser307), Akt (Ser473), and IR (tyrosine) phosphorylation under the experimental conditions described in (A) with normalization to protein levels for each molecule. (C) Inhibition of ER stress-induced (300 nM thapsigargin for 4 hours) Ser307 phosphorylation of IRS-1 by JNK-1 inhibitor, SP600125 (JNKi, 25 μM), (D) Quantitation of IRS-1 Ser307 phosphorylation under conditions described in (C). (E) Reversal of ER stress-induced inhibition of insulin-stimulated tyrosine phosphorylation (pY) of IRS-1 by a JNK inhibitor. (F) Quantitation of insulin-induced IRS-1 tyrosine phosphorylation levels described in (E). (G) JNK activity, Ser307 phosphorylation of IRS-1, and total IRS-1 levels at indicated times following tunicamycin treatment (Tun, 10 μg/ml for 1 hour) in IRE-1α^+/+ and IRE-1α^−/− fibroblasts. (H) Insulin-stimulated IRS-1 tyrosine phosphorylation and total IRS-1 levels following tunicamycin treatment (Tun, 10 μg/ml for 1 hour) in IRE-1α^+/+ and IRE-1α^−/− fibroblasts. […] All graphs show mean±SEM from at least 2 independent experiments and statistical significance from the controls is indicated by * with p<0.005.
In the presence of ER stress, increased phosphorylation of inositol requiring kinase-1α (IRE-1α) leads to recruitment of TNF-α receptor-associated factor 2 (TRAF2) protein and activates JNK (Urano et al., Science 287:664 (2000); incorporated herein by reference). To address whether ER stress-induced insulin resistance is dependent on intact IRE-1α, we measured JNK activation, IRS-1 serine phosphorylation, and insulin receptor signaling upon exposure of IRE-1α^−/− and wild type (WT) fibroblasts to tunicamycin. […]

Fao liver cells = experiment: ER stress inducers and insulin action in Fao liver cells; assay type: cell-based, rat
Procedure: as §1
(A) ER stress was induced in Fao cells by 1 hour treatment with 300 nM thapsigargin (Thap), and cells were subsequently stimulated with insulin (Ins). IRS-1 tyrosine phosphorylation (pY) and serine phosphorylation (pSer307), insulin receptor (IR) tyrosine phosphorylation, and total protein levels were examined using either immunoprecipitation (IP) followed by immunoblotting (IB) or direct immunoblotting. (B) Fao cells were treated with sulindac sulfide (SS: 0, 7.5, 30, and 60 μM) for 45 minutes with or without an additional hour of exposure to 300 nM thapsigargin (Thap). IRS-1 serine phosphorylation and total IRS-1 protein levels were examined as described above.
To investigate whether ER stress interferes with insulin action, we pretreated Fao liver cells with tunicamycin and thapsigargin, agents commonly used to induce ER stress. […] IRS-1 is a substrate for insulin receptor tyrosine kinase and serine phosphorylation of IRS-1, particularly mediated by JNK, reduces insulin receptor signaling (Hirosumi et al., Nature 420:333 (2002); incorporated herein by reference).
Cells: Rat Fao liver cells were cultured with RPMI 1640 (Gibco, Grand Island, N.Y.) containing 10% fetal bovine serum (FBS). […]

[2] = Fao cells pretreated with the agent

## tunicamycin
[1]; IRE-1α−/− cells
  insulin-stimulated tyrosine phosphorylation of IRS-1: no such effect was detected
[1]; WT cells
  insulin-stimulated tyrosine phosphorylation of IRS-1: inhibited
[1]; WT fibroblasts
  JNK activation: strong activation of JNK
  phosphorylation of IRS-1 at Ser307: stimulated
Fao liver cells; [2]
  insulin-induced Akt phosphorylation: suppressed
  serine phosphorylation of IRS-1: significant increase
Fao liver cells; Fao liver cells pretreated with the agent
  insulin-stimulated tyrosine phosphorylation of IRS-1: significantly decreased
